{
  "source": "paper PMC10604720",
  "about": "“Unraveling the Mechanism of Epichaperome Modulation by Zelavespib: Biochemical Insights on Target Occupancy and Extended Residence Time at the Site of Action” (Biomedicines, 2023)",
  "key": {"[1]": {"set-up": "method as in PMID 31668946", "conditions": "whole-body PET imaging, mice; cited from earlier work"}, "[2]": {"system": "chaperone assemblies", "test": "Kinetics of chaperone-zelavespib assembly taken from Phase 1 clearance", "set-up": "species or system mouse", "conditions": "in vivo, fast off-rate", "method": "Figure 1 Biodistribution of zelavespib in MDA-MB-468 tumor-bearing mice. (a) Biodistribution of [^124I]-Zelavespib in MDA-MB-468 tumors, organs, tissues, and plasma as per ref. [32]. Data are presented as means ± s.d., five mice per time point. Curves for blood, lung, heart, muscle, bone, and brain were fitted using a one-phase decay equation, and kinetics of zelavespib clearance were determined. Tumor curve was fitted to a two-phase exponential decay. k, kfast, and kslow are the rate constants. Half-life (T1/2) is computed as ln(2)/k. […] (b) Illustrative schematic showing the distinct binding kinetics of zelavespib to epichaperomes (slow off-rate) and to chaperone assemblies (fast off-rate). The tumor pharmacokinetics profile recorded in the Phase 2 interval may represent a direct reflection of the in vivo kinetics of target–drug unbinding. koff, kinetic rate constant for dissociation of an epichaperome-zelavespib assembly. Rt, retention time. […]"}, "[3]": {"set-up": "method as in PMID 28808818", "conditions": "human patients, no dependency on dose level; cited from earlier work"}, "[4]": {"system": "epichaperome", "test": "Target occupancy by zelavespib using tracer [131I]-PU-AD and gamma counting in MDA-MB-468 tumors", "format": "in vivo, mouse", "conditions": "for target occupancy: MDA-MB-468 tumor, 50 mg/kg; for target occupancy, accounting for background signal: background radioactivity of normal tissues (heart) subtracted", "method": "MDA-MB-468 (RRID:CVCL_0419) tumor xenografts were established on the forelimbs of female athymic nude mice (Hsd:Athymic Nude-Foxn1^nu; Envigo; 5 weeks old; RRID:MGI:5652489) by subcutaneous (s.c.) injection of 7 × 10^6 cells in a 300 µL cell suspension of a 1:1 v/v mixture of PBS with reconstituted basement membrane (BD Matrigel^TM, Collaborative Biomedical Products Inc., Bedford, MA, USA). Tumor progression was monitored using vernier calipers. For biodistribution studies, female athymic nude mice with MDA-MB-468 tumor xenografts (~200–300 mm^3) on the forelimbs were injected intravenously in the tail vein with zelavespib (50 mg/kg (PU-H71.HCl formulated in 10 mM Phosphate Buffer, pH = ~6.4)) at different time points (0 (co-injection), 6, 24, and 48 h) prior to tracer administration. At designated time points post-drug administration, mice were injected intravenously in the tail vein with 0.93–1.1 MBq (25–50 µCi) of [^131I]-PU-AD in 200 µL of 5% ethanol in saline. The activity in the syringe before and after administration was assayed in a dose calibrator (CRC-15R; Capintec, Florham Park, NJ, USA) to determine by difference the actual activity administered to each animal. Animals were euthanized by CO2 asphyxiation at 24 h post-administration of the radiolabeled [^131I]-PU-AD tracer, and organs, including tumor(s), were harvested and weighed. ^131I was measured in a 2480 WIZARD automatic gamma counter (PerkinElmer, Waltham, MA, USA) using a 260–430 keV energy window. Count data were background- and decay-corrected to the time of injection, and the percent injected dose per gram (%ID/g) for each tissue sample was calculated using a measured ^131I calibration factor to convert count rate to activity and the activity was normalized to the activity injected and the weighed mass of the sample to yield the activity concentration in %ID/g.\nThe drug could be trapped in non-tumor areas (i.e., stroma or necrotic tissue) or be intracellular but not target-bound. To test this notion and determine the percentile target occupied by each of these intratumoral concentrations of zelavespib, we performed studies in which tracer amounts (that is, non-pharmacologically perturbing amounts) of the radiolabeled epichaperome ligand [^131I]-PU-AD (~6 ng/g which is ~1/10,000 of the therapeutic zelavespib amount) were administered to mice intravenously 24 h prior to tumor zelavespib measurements (Figure 2a). The ^131I isotope has a half-life of 8 days, making it suitable for measurements of drugs with an extended tumor retention profile, such as that observed for zelavespib. It emits γ radiation and β particles; thus, γ-counting can be applied to detect and quantify the radioactive signal in tumors and tissues upon mouse sacrifice. Because both zelavespib and [^131I]-PU-AD bind to the same target, the epichaperome, the more zelavespib that is present in the tumor and is target-bound, the lower the radioactivity signal is in the tumor.\nFigure 3 Relationship between molar concentration and target engagement in MDA-MB-468 tumor-bearing mice. (a) Tumor molar concentrations of zelavespib experimentally determined by LC–MS/MS upon administration of single-dose 50 mg/kg zelavespib and sacrificing the mice at 30 h, 48 h, and 72 h post-zelavespib administration (n = 5 mice per time-point). Data are presented as means ± s.e.m., n = 5, one-way ANOVA with Dunnett’s post hoc. Controls: PU-24h, mice were injected 50 mg/kg zelavespib, and tumor concentrations of the drug were determined at 24 h post-injection using LC–MS/MS. Vehicle, mice were injected vehicle only. (b) Target engagement by zelavespib was determined by co-injection of zelavespib with a trace amount of [^131I]-PU-AD. Zelavespib was administered 6, 24, and 48 h prior to [^131I]-PU-AD. […]"}},
  "data": [
    {"compound": "CC(C)NCCCn1c(Sc2cc3c(cc2I)OCO3)nc2c(N)ncnc21", "note": "[zelavespib]", "values": [
      {"measurement": "T1/2 in MDA-MB-468 tumors", "setting": "[1]", "value": "approximately 60 h"},
      {"measurement": "T1/2, chaperone-zelavespib assembly", "setting": "[2]", "value": "~ 3 h"},
      {"measurement": "k Phase 1, chaperone-zelavespib assembly", "setting": "[2]", "value": "~ 0.2 h^-1"},
      {"measurement": "mean terminal half-life (T1/2) in the plasma", "setting": "[3]", "value": "8.4 ± 3.6", "unit": "h"},
      {"measurement": "target occupancy", "setting": "[4]; 30 h post single 50 mg/kg i.v.", "value": 38.8, "unit": "%"},
      {"measurement": "target occupancy, accounting for background signal", "setting": "[4]; 30 h post single 50 mg/kg i.v.", "value": 41.5, "unit": "%"},
      {"measurement": "target occupancy", "setting": "[4]; 48 h post single 50 mg/kg i.v.", "value": 24.9, "unit": "%"},
      {"measurement": "target occupancy, accounting for background signal", "setting": "[4]; 48 h post single 50 mg/kg i.v.", "value": 22.4, "unit": "%"},
      {"measurement": "target occupancy, accounting for background signal", "setting": "[4]; 72 h post single 50 mg/kg i.v.", "value": 3.5, "unit": "%"},
      {"measurement": "remaining intratumoral zelavespib that is target-bound", "setting": "[4]; 72 h post-injection", "value": "about 50%"}
    ]}
  ]
}
